From patent US8268961B2, “Antibacterial peptides and analogues thereof” (Universita Degli Studi di Siena, priority 2004, dated 2012)
Read-outs that look alike come from different tables or passages of the source. Positions of bridges follow the written chain, without caps; N, C: chain ends. Chains are numbered I, II in the order given. No end group written: not given here.

Assays:
E. coli ATCC 25922 = test: Minimal bactericidal concentration (MBC); format: cell-based
Experimental: (§1) Reference strains (Escherichia coli ATCC 25922, Pseudomonas aeruginosa ATCC 27853, Staphylococus aureus ATCC 25923 and Chryseobacterium meningosepticum CCUG 4310) and several recent clinical isolates (including multidrug-resistant ones) of various species (Table 2) were used for conventional susceptibility testing experiments. Minimum Inhibitory Concentration (MIC) was determined by a standard microdilution assay as recommended by the National Commitee for Clinical Laboratory Standards (NCCLS) using cation-supplemented Mueller-Hinton (MH) broth (Oxoid Ltd. Basingstoke, UK) and a bacterial inoculum of 5×10^4 CFU per well, in a final volume of 100 μl. Results were recorded by visual inspection after 24 h of incubation at 37° C.
(§2) The MBC was determined as recommended by the National Committee for Clinical Laboratory Standards (NCCLS) on strains of E. coli ATCC 25922 and P. aeruginosa ATCC 27853.

P. aeruginosa ATCC 27853 = test: Minimal bactericidal concentration (MBC); format: cell-based
Experimental: as §1, §2

[1] = Stability to plasmatic protease (HPLC); format: in vitro ADME, human
Summary of the method: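 Linear and MAP peptides (10 mM in H2O) incubated with human plasma and serum at 37° C. for 2 and 24 hours. Reaction stopped with methanol; supernatant analysed by reverse-phase C18 HPLC (20-95% TFA/methanol gradient, 30 min) for undigested peptide.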

[2] = test system: murine macrophage cells J774 A.1; test: Cytotoxicity test by MTT; format: cell-based, mouse
Experimental: The cytotoxicity of antibacterial MAP peptides was evaluated on different eukaryotic cell lines by a colorimetric assay (MTT). This assay measures the cells' ability to convert a soluble tetrazolium salt into an insoluble precipitate: formazan. The cytotoxicity of M1 was evaluated on murine macrophagic cells (J774 A.1), murine myeloma cells (SPO) and Chinese hamster ovary epithelium cells (CHO K1). As shown FIG. 4, even at high concentrations (1 mg/ml) M1 cytotoxicity on CHO K1 cells and on SPO cells is low (percent survival is 80-90%).
For cytotoxicity tests, different cell lines were used: murine myeloma cells SPO, hamster ovary epithelium cells CHO K 1, murine macrophage cells J774 A.1 and human keratinocytes HaCaT. The cells were plated in medium in RPMI 1640 (SPO and CHO K 1) and DMEM (J774 A.1 and HaCaT) with antibiotics and bovine foetal serum at 10%, in 96-well plates at the concentration of 6×10^4 (SPO, CHO K1 and J774 A.1) and 3×10^4 (HaCaT). Peptides, previously filtered with a 0.2 μm filter disk (Whatman), were added at various concentrations to the different cell lines and left in incubation over night at 37° C. Cell viability was determined adding the MTT tetrazolium salt at the concentration of 0.5 mg/ml and incubating for 90 min. The cells were solubilised with a solution at pH 4.5 containing SDS 10% and dimethylformamide 45% and read at the dual wavelength of 595/650 nm with a plate reader.

E. coli strain TG1 = test: Test of antibacterial activity (colony growth inhibition) on E. coli strain TG1; format: cell-based; conditions: E. coli TG1, colony counting vs control without peptide
Summary of the method: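 E. coli TG1 (OD600 0.2) was incubated 75 min at 37 °C with peptide in PBS at 0.12–2 mg/ml. Cells were then diluted 1:1000, plated on 2×TY agar and grown overnight at 30 °C, and colonies were counted against an untreated control.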

[3] = test system: Proteus mirabilis W99FI0089; test: MIC, standard microdilution assay; format: cell-based; conditions: Proteus mirabilis W99FI0089, FQR
From the text: (§3) MIC is defined as the lowest concentration, in an antibiotic dilution range, that inhibits visible bacterial growth. The importance of MIC sensitivity test is based on the principle that in vitro sensitivity provides a predictive indication of the in vivo efficacy of the antibiotic therapy. Values are expressed as molar concentration and compared to MIC values obtained with commercially available antibiotics such as amikacin, ceftriaxone and levofloxacin (Table 3).
as §1

[4] = test system: Serratia marcescens W99FI0111; test: MIC, standard microdilution assay; format: cell-based; conditions: Serratia marcescens W99FI0111, FQR AGR ESCR (ESBL/SHV-5)
From the text: as §3, §1

[5] = test system: Providencia stuartii W03FI0001; test: MIC, standard microdilution assay; format: cell-based; conditions: Providencia stuartii W03FI0001, AGR ESCR (ESBL/PER-1)
From the text: as §3, §1

[6] = test system: Morganella morganii W03VA1342; test: MIC, standard microdilution assay; format: cell-based; conditions: Morganella morganii W03VA1342, FQR ESCR (ESBL/CTX-M-1)
From the text: as §3, §1

[7] = test system: Chryseobacterium meningosepticum CCUG4310; test: MIC, standard microdilution assay; format: cell-based; conditions: Chryseobacterium meningosepticum CCUG4310, reference strain
From the text: as §3, §1

Substance: I: QKKIRVRLSAKKA-OH / II: QKKIRVRLSAK / III: QKKIRVRLSA / IV: QKKIRVRLSA (amide I:11-IV:C, I:12-II:C, II:11-III:C) [M6, QKKIRVRLSA]
- MBC (minimal concentration able to kill 99.9% of the inoculum) compared with MIC (E. coli ATCC 25922): equal to the calculated values of MIC
- MBC (minimal concentration able to kill 99.9% of the inoculum) compared with MIC (E. coli ATCC 25922; listed as QKKIRVRLSA): equal to the corresponding MIC values
- MBC (minimal concentration able to kill 99.9% of the inoculum) compared with MIC (P. aeruginosa ATCC 27853): equal to the calculated values of MIC
- MBC (minimal concentration able to kill 99.9% of the inoculum) compared with MIC (P. aeruginosa ATCC 27853; listed as QKKIRVRLSA): equal to the corresponding MIC values
- Resistance to plasmatic protease: Plasma 2 h [1]: +
- Resistance to plasmatic protease: Plasma 24 h [1]: +
- Concentration at and over which a drop in cell viability was evident (MTT) [2]: ≥ 125 µg/mL
- Vitality of J774 A.1 cells as the concentration of MAP peptides increases (MTT) [2]: decreases
- Antibacterial activity on E. coli TG1 colony growth (E. coli strain TG1): good antibacterial activity
- MIC (Molarity) [3]: >49 µM
- MIC (Molarity) [4]: >49 µM
- MIC (Molarity) [5]: >49 µM
- MIC (Molarity) [6]: >49 µM
- MIC (Molarity) [7]: >49 µM
